{"source": "paper PMC5767004", "about": "“Inhibitors of the integrase–transportin-SR2 interaction block HIV nuclear import” (Retrovirology, 2018)", "key": {"HIV": {"system": "HIV", "settings": "cited from earlier work"}, "[1]": {"system": "HIV PIC nuclear import (IN-eGFP labeled virus)", "test": "PIC nuclear import assay in HeLaP4 cells", "assay_type": "cell-based, HIV-1", "settings": "100 µM hit compound, 5 h after infection, experiment compared to DMSO"}, "[2]": {"molecular_target": "T1, HIV-1 IN–TRN-SR2 interaction (UniProt P12497+Q9Y5L0)", "T1 construct": "N-terminally His6-tagged and untagged IN; made in house; host or cells: E. coli BL21-CodonPlus2 (DE3)", "T1 sequence (Q9Y5L0 whole entry, other chains not shown)": "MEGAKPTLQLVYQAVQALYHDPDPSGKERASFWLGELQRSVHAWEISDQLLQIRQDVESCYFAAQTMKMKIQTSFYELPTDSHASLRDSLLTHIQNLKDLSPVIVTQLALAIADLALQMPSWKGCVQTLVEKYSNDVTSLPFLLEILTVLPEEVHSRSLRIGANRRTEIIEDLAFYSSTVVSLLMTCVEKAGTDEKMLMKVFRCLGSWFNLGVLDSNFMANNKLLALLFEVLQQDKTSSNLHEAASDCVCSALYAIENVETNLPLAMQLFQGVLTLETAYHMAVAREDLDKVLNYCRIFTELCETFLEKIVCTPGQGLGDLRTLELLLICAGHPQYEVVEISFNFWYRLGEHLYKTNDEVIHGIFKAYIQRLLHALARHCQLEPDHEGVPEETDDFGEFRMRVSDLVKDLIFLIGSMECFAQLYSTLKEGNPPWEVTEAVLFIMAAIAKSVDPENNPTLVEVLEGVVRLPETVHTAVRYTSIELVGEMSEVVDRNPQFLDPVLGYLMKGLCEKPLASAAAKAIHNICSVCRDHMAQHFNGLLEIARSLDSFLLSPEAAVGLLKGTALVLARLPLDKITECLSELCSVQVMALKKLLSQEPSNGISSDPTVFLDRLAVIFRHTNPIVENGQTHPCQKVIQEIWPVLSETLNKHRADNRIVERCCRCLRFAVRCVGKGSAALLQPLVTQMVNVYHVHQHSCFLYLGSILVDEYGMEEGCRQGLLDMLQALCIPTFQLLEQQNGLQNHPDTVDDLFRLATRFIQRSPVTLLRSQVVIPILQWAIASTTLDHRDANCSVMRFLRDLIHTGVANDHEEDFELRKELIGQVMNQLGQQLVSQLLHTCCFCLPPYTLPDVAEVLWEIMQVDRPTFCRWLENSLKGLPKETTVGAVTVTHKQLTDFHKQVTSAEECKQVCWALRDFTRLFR", "test": "HIV-1 IN–TRN-SR2 AlphaScreen interaction assay", "assay_type": "binding", "settings": "evaluation as positive control, Fig. 2b", "method": "Compound stocks were dissolved at approximately 5 mM in dimethylsulfoxide (DMSO) in 96-well plates. Stocks were first diluted to 125 µM in assay buffer (150 mM NaCl, 25 mM Tris–HCl pH 7.4, 1 mM MgCl2, 0.1% (v/v) Tween-20 and 0.1% (w/v) bovine serum albumin (BSA)) supplemented with 2.5% (v/v) DMSO before 10 µl was transferred to a dry 384-well PS 384-OptiPlate (Perkin Elmer) on a Freedom EVO200 liquid handling robot (Tecan). Untagged TRN-SR2 at 2.5 µM and assay buffer containing 5% DMSO were transferred from a separate 96-well plate to the assay plates and represented the positive and negative controls, respectively. Next, 5 µl each of 5× working dilutions of GST-TRN-SR2 and His6-IN were added using an XRD-384 automated reagent dispenser (FluidX). The plate was left to incubate for 1 h at 7 °C before 5 µl of a glutathione donor and Ni^2+-chelate acceptor AlphaScreen bead mixture (Perkin Elmer) was added. […]\nDevelopment of robust high-throughput assays requires optimal buffer conditions in which both proteins and the detection method are stable and reproducible. […] This experience allowed us to readily adapt an assay buffer to meet the requirements for a high-throughput screen (HTS) for inhibitors of the interaction. […]"}}, "note": "Entries after “also recorded” stand apart in the source; their conditions may differ.", "data": [{"compound": "Cc1[nH]c2ccccc2c1CC(=O)N[C@@H](Cc1ccccc1)C(=O)N(C)c1ccccc1", "note": "[PF74, PF-3450074]", "values": [{"measurement": "Inhibition of reverse transcription (in words)", "setting": "HIV; higher concentrations (10 µM)", "value": "inhibits reverse transcription at higher concentrations"}, {"measurement": "Inhibition of HIV nuclear import (in words)", "setting": "HIV; low concentrations (2 µM)", "value": "known to inhibit nuclear import at low concentrations"}]}, {"compound": "Cc1nnc(C(=O)NC(C)(C)c2nc(C(=O)NCc3ccc(F)cc3)c(O)c(=O)n2C)o1", "note": "[Ral, Raltegravir]", "values": [{"measurement": "% nuclear PICs (mean)", "setting": "[1]", "value": 4.5, "unit": "%"}]}, {"compound": "Untagged TRN-SR2: untagged recombinant Transportin-SR2 protein, positive control of the AlphaScreen", "values": [{"measurement": "Inhibition of the IN–TRN-SR2 AlphaScreen signal by untagged protein (titration, in words)", "setting": "[2]", "value": "could block the interaction completely; also recorded: did inhibit the signal"}]}]}
